Target: T1, CCR1 (Homo sapiens, UniProt P32246)
T1 sequence (P32246 1-355): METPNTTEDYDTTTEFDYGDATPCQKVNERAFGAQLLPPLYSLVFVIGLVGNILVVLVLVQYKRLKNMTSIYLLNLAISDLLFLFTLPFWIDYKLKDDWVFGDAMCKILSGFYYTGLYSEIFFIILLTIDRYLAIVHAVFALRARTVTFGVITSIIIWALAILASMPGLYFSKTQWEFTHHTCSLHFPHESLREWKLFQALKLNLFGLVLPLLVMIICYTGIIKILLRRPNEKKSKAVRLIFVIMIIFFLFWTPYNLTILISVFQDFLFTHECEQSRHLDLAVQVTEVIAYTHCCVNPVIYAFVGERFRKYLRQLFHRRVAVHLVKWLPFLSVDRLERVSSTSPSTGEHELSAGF
Test: Method A: calcium flux in CCR1 transfected cells (Fluo-4 NW, FLIPR TETRA), block of the CCR1/MIP-1α interaction
Format: cell-based
Conditions: Method A: Fluo-4 NW, MIP-1 alpha at EC80
Description: Compounds are assessed for the ability to block the interaction of CCR1 and MIP-1α in a functional cellular assay measuring calcium flux in CCR1 transfected cells.
Method A: Non-adherent cells purchased from Chemicon Corporation (HTS005C), stably expressing recombinant CCR1 and G-alpha-16 are grown in RPMI 1640 medium (Mediatech 10-080-CM) supplemented with 10% heat-inactivated FBS, 0.4 mg/mL Geneticin and penicillin/streptomycin. On the day of the assay, the cells are transferred to a beaker and dye-loaded in bulk using a Fluo-4 NW Calcium Assay Kit with probenecid (Invitrogen F36205) at 0.8E6 cells/mL for 1 hour at room temperature. After 1 hour, they are seeded in a 384-well tissue culture-treated plate at a density of 20,000 cells/well. Appropriately diluted test compound is added to the well to achieve a top concentration of 3,000 nM (diluted 4-fold with 10 doses total). The final concentration of DMSO is 1%. The buffer is HBSS (Invitrogen 14025) with 20 mM HEPES at pH 7.4. The cells are allowed to incubate 1 hour in the dark at room temperature. The plates are transferred to the FLIPR TETRA where MIP-1 alpha in 1% BSA is added at the EC80 final concentration. Wells+/−MIP-1 alpha containing diluted DMSO instead of compound serve as the controls. Intracellular calcium flux is recorded on the FLIPR TETRA, using excitation at 470/495 nm and emission at 515/575 nm. Data are analyzed using Activity Base software.

Compared with `NC1CCN(S(=O)(=O)c2ccc(CNC(=O)c3cncc4c3cnn4-c3ccc(F)cc3)cc2)CC1` [1-(4-Fluorophenyl)-1H-pyrazolo[3,4-c]pyridine-4-carboxylic acid 4-(4-amino-piperidine-1-sulfonyl)-benzylamide], `O=C(NCc1ccc(S(=O)(=O)N2CCC(O)CC2)cc1)c1cncc2c1cnn2-c1ccc(F)cc1` [1-(4-Fluorophenyl)-1H-pyrazolo[3,4-c]pyridine-4-carboxylic acid 4-(4-hydroxy-piperidine-1-sulfonyl)-benzylamide] is 6.7-fold higher in IC50: 0.3 nM for the first, 2 nM for the second. The first is the more potent here.

Going from `CN(C)C1CCN(S(=O)(=O)c2ccc(CNC(=O)c3cncc4c3cnn4-c3ccc(F)cc3)cc2)CC1` [1-(4-Fluorophenyl)-1H-pyrazolo[3,4-c]pyridine-4-carboxylic acid 4-(4-dimethylamino-piperidine-1-sulfonyl)-benzylamide] to `COC1CCN(S(=O)(=O)c2ccc(CNC(=O)c3cncc4c3cnn4-c3ccc(F)cc3)cc2)CC1` [1-(4-Fluorophenyl)-1H-pyrazolo[3,4-c]pyridine-4-carboxylic acid 4-(4-methoxy-piperidine-1-sulfonyl)-benzylamide], the IC50 falls from 3 nM to 0.7 nM (4.3-fold).

Going from `CN1CCN(S(=O)(=O)c2ccc(CNC(=O)c3cncc4c3cnn4-c3ccc(F)cc3)cc2)CC1` [1-(4-Fluorophenyl)-1H-pyrazolo[3,4-c]pyridine-4-carboxylic acid 4-(4-methyl-piperazine-1-sulfonyl)-benzylamide] to `CN1CCN(S(=O)(=O)Cc2ccc(CNC(=O)c3cncc4c3cnn4-c3ccc(F)cc3)cc2)CC1` [1-(4-Fluorophenyl)-1H-pyrazolo[3,4-c]pyridine-4-carboxylic acid 4-(4-methyl-piperazine-1-sulfonylmethyl)-benzylamide], the IC50 rises from 1 nM to 39 nM (39-fold). The first is the more potent here.

`C[C@H](CO)NS(=O)(=O)c1ccc(CNC(=O)c2cncc3c2cnn3-c2ccc(F)cc2)cc1` [1-(4-Fluorophenyl)-1H-pyrazolo[3,4-c]pyridine-4-carboxylic acid 4-((R)-2-hydroxy-1-methyl-ethylsulfamoyl)-benzylamide] and `C[C@@H](CO)NS(=O)(=O)c1ccc(CNC(=O)c2cncc3c2cnn3-c2ccc(F)cc2)cc1` [1-(4-Fluorophenyl)-1H-pyrazolo[3,4-c]pyridine-4-carboxylic acid 4-((S)-2-hydroxy-1-methyl-ethylsulfamoyl)-benzylamide] are the same in IC50: 2 nM for the first, 2 nM for the second.

Compared with `NC(=O)CNS(=O)(=O)c1ccc(CNC(=O)c2cncc3c2cnn3-c2ccc(F)cc2)cc1` [1-(4-Fluorophenyl)-1H-pyrazolo[3,4-c]pyridine-4-carboxylic acid 4-(carbamoylmethyl-sulfamoyl)-benzylamide], `CN(CCO)S(=O)(=O)c1ccc(CNC(=O)c2cncc3c2cnn3-c2ccc(F)cc2)cc1` [1-(4-Fluorophenyl)-1H-pyrazolo[3,4-c]pyridine-4-carboxylic acid 4-[(2-hydroxy-ethyl)-methyl-sulfamoyl]-benzylamide] is 22-fold lower in IC50: 22 nM for the first, 1 nM for the second.

Going from `CC(C)NS(=O)(=O)Cc1ccc(CNC(=O)c2cncc3c2cnn3-c2ccc(F)cc2)cc1` [1-(4-Fluorophenyl)-1H-pyrazolo[3,4-c]pyridine-4-carboxylic acid 4-(isopropylsulfamoyl-methyl)-benzylamide] to `CS(=O)(=O)Nc1ccc(CNC(=O)c2cncc3c2cnn3-c2ccc(F)cc2)cc1` [1-(4-Fluorophenyl)-1H-pyrazolo[3,4-c]pyridine-4-carboxylic acid 4-methanesulfonylamino-benzylamide], the IC50 rises from 3 nM to 7 nM (2.3-fold).

`CN(C1CCNCC1)S(=O)(=O)c1ccc(CNC(=O)c2cncc3c2cnn3-c2ccc(F)cc2)cc1` [1-(4-Fluorophenyl)-1H-pyrazolo[3,4-c]pyridine-4-carboxylic acid 4-(methyl-piperidin-4-yl-sulfamoyl)-benzylamide] and `CN(C1CCOCC1)S(=O)(=O)c1ccc(CNC(=O)c2cncc3c2cnn3-c2ccc(F)cc2)cc1` [1-(4-Fluorophenyl)-1H-pyrazolo[3,4-c]pyridine-4-carboxylic acid 4-[methyl-(tetrahydropyran-4-yl)-sulfamoyl]-benzylamide] are the same in IC50: 2 nM for the first, 2 nM for the second.

First: O=C(NCc1ccc(S(=O)(=O)N2CCOCC2)cc1)c1cncc2c1cnn2-c1ccc(F)cc1 [1-(4-Fluorophenyl)-1H-pyrazolo[3,4-c]pyridine-4-carboxylic acid 4-(morpholine-4-sulfonyl)-benzylamide]
Second: O=C(NCc1ccc(CS(=O)(=O)N2CCOCC2)cc1)c1cncc2c1cnn2-c1ccc(F)cc1 [1-(4-Fluorophenyl)-1H-pyrazolo[3,4-c]pyridine-4-carboxylic acid 4-(morpholine-4-sulfonylmethyl)-benzylamide]
The IC50 of the first is 10-fold lower: 2 nM for the first, 20 nM for the second.

First: O=C(NCc1ccc(CS(=O)(=O)N2CCCCC2)cc1)c1cncc2c1cnn2-c1ccc(F)cc1 [1-(4-Fluorophenyl)-1H-pyrazolo[3,4-c]pyridine-4-carboxylic acid 4-(piperidine-1-sulfonylmethyl)-benzylamide]
Second: O=C(NCc1ccc(CS(=O)(=O)NC2CCCCC2)cc1)c1cncc2c1cnn2-c1ccc(F)cc1 [1-(4-Fluorophenyl)-1H-pyrazolo[3,4-c]pyridine-4-carboxylic acid 4-cyclohexylsulfamoylmethyl-benzylamide]
The IC50 of the first is 1.8-fold lower: 6 nM for the first, 11 nM for the second. The first is the more potent here.

First: CN1CCC(N(C)S(=O)(=O)c2ccc(CNC(=O)c3cncc4c3cnn4-c3ccc(F)cc3)cc2)CC1 [1-(4-Fluorophenyl)-1H-pyrazolo[3,4-c]pyridine-4-carboxylic acid 4-[methyl-(1-methyl-piperidin-4-yl)-sulfamoyl]-benzylamide]
Second: CN1CCC(N(C)S(=O)(=O)Cc2ccc(CNC(=O)c3cncc4c3cnn4-c3ccc(F)cc3)cc2)CC1 [1-(4-Fluorophenyl)-1H-pyrazolo[3,4-c]pyridine-4-carboxylic acid 4-{[methyl-(1-methyl-piperidin-4-yl)-sulfamoyl]-methyl}-benzylamide]
The IC50 of the first is 6.6-fold lower: 5 nM for the first, 33 nM for the second.

Going from `COc1cc(S(C)(=O)=O)ccc1CNC(=O)c1cncc2c1cnn2-c1ccc(F)cc1` [1-(4-Fluorophenyl)-1H-pyrazolo[3,4-c]pyridine-4-carboxylic acid 4-methanesulfonyl-2-methoxy-benzylamide] to `COc1cc(CNC(=O)c2cncc3c2cnn3-c2ccc(F)cc2)ccc1S(C)(=O)=O` [1-(4-Fluorophenyl)-1H-pyrazolo[3,4-c]pyridine-4-carboxylic acid 4-methanesulfonyl-3-methoxy-benzylamide], the IC50 falls from 10 nM to 4 nM (2.5-fold).

Going from `CNS(=O)(=O)c1cc(CNC(=O)c2cncc3c2cnn3-c2ccc(F)cc2)ccc1OC` [1-(4-Fluorophenyl)-1H-pyrazolo[3,4-c]pyridine-4-carboxylic acid 4-methoxy-3-methylsulfamoyl-benzylamide] to `COc1cc(CNC(=O)c2cncc3c2cnn3-c2ccc(F)cc2)ccn1` [1-(4-Fluorophenyl)-1H-pyrazolo[3,4-c]pyridine-4-carboxylic acid (2-methoxy-pyridin-4-ylmethyl)-amide], the IC50 falls from 12 nM to 2 nM (6-fold). The second is the more potent here.

Compared with `O=C(NCc1ccnc(Br)c1)c1cncc2c1cnn2-c1ccc(F)cc1` [1-(4-Fluorophenyl)-1H-pyrazolo[3,4-c]pyridine-4-carboxylic acid (2-bromopyridin-4-ylmethyl)-amide], `NS(=O)(=O)c1cc(CNC(=O)c2cncc3c2cnn3-c2ccc(F)cc2)ccn1` [1-(4-Fluorophenyl)-1H-pyrazolo[3,4-c]pyridine-4-carboxylic acid (2-sulfamoyl-pyridin-4-ylmethyl)-amide] is 6.5-fold higher in IC50: 2 nM for the first, 13 nM for the second.

Source: patent publication US8063065B2, “Azaindazole compounds as CCR1 receptor antagonists” (Boehringer Ingelheim International GmbH, priority 2008, dated 2011)
